{"source": "patent US20240308996A1", "about": "“PYRIDOPYRIDINES AND DERIVATIVES THEREOF AS SELECTIVE KINASE INHIBITORS” (University of Sharjah, priority 2023, published 2024)", "assay_type_in_all_cases": "cell-based", "key": {"HL-60(TB)": {"test_system": "HL-60(TB)", "experiment": "NCI-60 cell line panel: HL-60(TB)", "design": "TGI: unit not given here", "details": "Leukemia", "protocol": "(§1) It was carried out at the NCI, Bethesda, MD, USA, utilizing their standard protocol."}, "MOLT-4": {"test_system": "MOLT-4", "experiment": "NCI-60 cell line panel: MOLT-4", "design": "TGI: unit not given here", "details": "Leukemia", "protocol": "as §1"}, "RPMI-8226": {"test_system": "RPMI-8226", "experiment": "NCI-60 cell line panel: RPMI-8226", "details": "Leukemia", "protocol": "as §1"}, "EKVX": {"test_system": "EKVX", "experiment": "NCI-60 cell line panel: EKVX", "details": "Homo sapiens, Non-Small Cell Lung Cancer", "protocol": "as §1"}, "HOP-62": {"test_system": "HOP-62", "experiment": "NCI-60 cell line panel: HOP-62", "details": "Non-Small Cell Lung Cancer", "protocol": "as §1"}, "HOP-92": {"test_system": "HOP-92", "experiment": "NCI-60 cell line panel: HOP-92", "design": "TGI: unit not given here", "details": "Non-Small Cell Lung Cancer", "protocol": "as §1"}, "NCI-H322M": {"test_system": "NCI-H322M", "experiment": "NCI-60 cell line panel: NCI-H322M", "details": "Non-Small Cell Lung Cancer", "protocol": "as §1"}, "NCI-H460": {"test_system": "NCI-H460", "experiment": "NCI-60 cell line panel: NCI-H460", "details": "Non-Small Cell Lung Cancer", "protocol": "as §1"}, "COLO 205": {"test_system": "COLO 205", "experiment": "NCI-60 cell line panel: COLO 205", "design": "TGI: unit not given here", "details": "Colon Cancer", "protocol": "as §1"}, "HCT-15": {"test_system": "HCT-15", "experiment": "NCI-60 cell line panel: HCT-15", "details": "Colon Cancer", "protocol": "as §1"}, "HT29": {"test_system": "HT29", "experiment": "NCI-60 cell line panel: HT29", "protocol": "as §1"}, "KM12": {"test_system": "KM12", "experiment": "NCI-60 cell line panel: KM12", "details": "Colon Cancer", "protocol": "as §1"}, "SF-295": {"test_system": "SF-295", "experiment": "NCI-60 cell line panel: SF-295", "details": "CNS Cancer", "protocol": "as §1"}, "SNB-19": {"test_system": "SNB-19", "experiment": "NCI-60 cell line panel: SNB-19", "details": "CNS Cancer", "protocol": "as §1"}, "SNB-75": {"test_system": "SNB-75", "experiment": "NCI-60 cell line panel: SNB-75", "design": "TGI: unit not given here", "details": "CNS Cancer", "protocol": "as §1"}, "U251": {"test_system": "U251", "experiment": "NCI-60 cell line panel: U251", "design": "TGI: unit not given here", "protocol": "as §1"}, "MALME-3M": {"test_system": "MALME-3M", "experiment": "NCI-60 cell line panel: MALME-3M", "details": "Melanoma", "protocol": "as §1"}, "SK-MEL-2": {"test_system": "SK-MEL-2", "experiment": "NCI-60 cell line panel: SK-MEL-2", "design": "TGI: unit not given here", "details": "Melanoma", "protocol": "as §1"}, "SK-MEL-5": {"test_system": "SK-MEL-5", "experiment": "NCI-60 cell line panel: SK-MEL-5", "details": "Melanoma", "protocol": "as §1"}, "UACC-257": {"test_system": "UACC-257", "experiment": "NCI-60 cell line panel: UACC-257", "details": "Melanoma", "protocol": "as §1"}, "UACC-62": {"test_system": "UACC-62", "experiment": "NCI-60 cell line panel: UACC-62", "details": "Melanoma", "protocol": "as §1"}, "IGROV1": {"test_system": "IGROV1", "experiment": "NCI-60 cell line panel: IGROV1", "protocol": "as §1"}, "OVCAR-3": {"test_system": "OVCAR-3", "experiment": "NCI-60 cell line panel: OVCAR-3", "details": "Ovarian Cancer", "protocol": "as §1"}, "OVCAR-4": {"test_system": "OVCAR-4", "experiment": "NCI-60 cell line panel: OVCAR-4", "details": "Homo sapiens, Ovarian Cancer", "protocol": "as §1"}, "OVCAR-8": {"test_system": "OVCAR-8", "experiment": "NCI-60 cell line panel: OVCAR-8", "details": "Ovarian Cancer", "protocol": "as §1"}, "CAKI-1": {"test_system": "CAKI-1", "experiment": "NCI-60 cell line panel: CAKI-1", "design": "TGI: unit not given here", "details": "Renal Cancer", "protocol": "as §1"}, "TK-10": {"test_system": "TK-10", "experiment": "NCI-60 cell line panel: TK-10", "details": "Renal Cancer", "protocol": "as §1"}, "HS 578T": {"test_system": "HS 578T", "experiment": "NCI-60 cell line panel: HS 578T", "protocol": "as §1"}, "T-47D": {"test_system": "T-47D", "experiment": "NCI-60 cell line panel: T-47D", "details": "Breast Cancer", "protocol": "as §1"}, "MDA-MB-468": {"test_system": "MDA-MB-468", "experiment": "NCI-60 cell line panel: MDA-MB-468", "details": "Breast Cancer", "protocol": "as §1"}, "[1]": {"details": "total growth inhibition, in µM (unit assumed)"}}}
{"compound": "CCN1CCN(c2ccc(NC(=O)Nc3ccc(-c4cc(C(=O)NC)c5ncccc5n4)cc3)cc2C(F)(F)F)CC1", "note": "[Compound 13c, 2-(4-(3-(4-(4-Ethylpiperazin-1-yl)-3-(trifluoromethyl)phenyl)ureido)phenyl)-N-methyl-1,5-naphthyridine-4-carboxamide]", "values": [{"measurement": "IC50", "setting": "HL-60(TB); Homo sapiens", "value": 3.42, "unit": "µM"}, {"measurement": "TGI", "setting": "HL-60(TB); total growth inhibition", "value": ">18.0"}, {"measurement": "IC50", "setting": "MOLT-4; Homo sapiens", "value": 0.7, "unit": "µM"}, {"measurement": "TGI", "setting": "MOLT-4; total growth inhibition", "value": ">18.0"}, {"measurement": "IC50", "setting": "RPMI-8226; Homo sapiens", "value": 3.05, "unit": "µM"}, {"measurement": "TGI", "setting": "RPMI-8226; total growth inhibition", "value": "> 18", "unit": "µM"}, {"measurement": "IC50", "setting": "EKVX", "value": 2.94, "unit": "µM"}, {"measurement": "IC50", "setting": "HOP-62; Homo sapiens", "value": 2.79, "unit": "µM"}, {"measurement": "TGI", "setting": "HOP-62; total growth inhibition", "value": 5.41, "unit": "µM"}, {"measurement": "IC50", "setting": "HOP-92; Homo sapiens", "value": 2.45, "unit": "µM"}, {"measurement": "TGI", "setting": "HOP-92; total growth inhibition", "value": 5.67}, {"measurement": "IC50", "setting": "NCI-H322M; Homo sapiens", "value": 2.8, "unit": "µM"}, {"measurement": "TGI", "setting": "NCI-H322M; total growth inhibition", "value": 5.2, "unit": "µM"}, {"measurement": "IC50", "setting": "NCI-H460; Homo sapiens", "value": 0.66, "unit": "µM"}, {"measurement": "TGI", "setting": "NCI-H460; total growth inhibition", "value": 2.93, "unit": "µM"}, {"measurement": "TGI", "setting": "COLO 205; total growth inhibition", "value": 14.20}, {"measurement": "IC50", "setting": "COLO 205; Homo sapiens", "value": 4.15, "unit": "µM"}, {"measurement": "TGI", "setting": "HCT-15; total growth inhibition", "value": 0.7, "unit": "µM"}, {"measurement": "IC50", "setting": "HCT-15; Homo sapiens", "value": 0.33, "unit": "µM"}, {"measurement": "TGI", "setting": "HT29; Colon Cancer, total growth inhibition", "value": 2.11, "unit": "µM"}, {"measurement": "IC50", "setting": "HT29; Homo sapiens, HT-29, Colon Cancer", "value": 0.53, "unit": "µM"}, {"measurement": "TGI", "setting": "KM12; total growth inhibition", "value": 6.65, "unit": "µM"}, {"measurement": "IC50", "setting": "KM12; Homo sapiens", "value": 3.25, "unit": "µM"}, {"measurement": "TGI", "setting": "SF-295; total growth inhibition, unit assumed", "value": 4.47, "unit": "µM"}, {"measurement": "IC50", "setting": "SF-295; Homo sapiens", "value": 2.06, "unit": "µM"}, {"measurement": "TGI", "setting": "SNB-19; total growth inhibition", "value": 5.48, "unit": "µM"}, {"measurement": "IC50", "setting": "SNB-19; Homo sapiens", "value": 2.97, "unit": "µM"}, {"measurement": "TGI", "setting": "SNB-75; total growth inhibition", "value": 3.82}, {"measurement": "IC50", "setting": "SNB-75; Homo sapiens", "value": 0.84, "unit": "µM"}, {"measurement": "TGI", "setting": "U251; CNS Cancer, total growth inhibition", "value": 5.53}, {"measurement": "IC50", "setting": "U251; Homo sapiens, U-251, CNS Cancer", "value": 2.69, "unit": "µM"}, {"measurement": "IC50", "setting": "MALME-3M; Homo sapiens", "value": 0.29, "unit": "µM"}, {"measurement": "TGI", "setting": "MALME-3M; [1]", "value": 0.53}, {"measurement": "IC50", "setting": "SK-MEL-2; Homo sapiens", "value": 9.87, "unit": "µM"}, {"measurement": "TGI", "setting": "SK-MEL-2; total growth inhibition", "value": ">18.0"}, {"measurement": "IC50", "setting": "SK-MEL-5; Homo sapiens", "value": 2.05, "unit": "µM"}, {"measurement": "TGI", "setting": "SK-MEL-5; total growth inhibition", "value": 4.26, "unit": "µM"}, {"measurement": "IC50", "setting": "UACC-257; Homo sapiens", "value": 3.05, "unit": "µM"}, {"measurement": "TGI", "setting": "UACC-257; total growth inhibition", "value": 5.99, "unit": "µM"}, {"measurement": "IC50", "setting": "UACC-62; Homo sapiens", "value": 3.06, "unit": "µM"}, {"measurement": "TGI", "setting": "UACC-62; total growth inhibition", "value": 5.66, "unit": "µM"}, {"measurement": "IC50", "setting": "IGROV1; Homo sapiens, IGROV-1, Ovarian Cancer", "value": 3.01, "unit": "µM"}, {"measurement": "TGI", "setting": "IGROV1; Ovarian Cancer, total growth inhibition", "value": 5.61, "unit": "µM"}, {"measurement": "IC50", "setting": "OVCAR-3; Homo sapiens", "value": 2.54, "unit": "µM"}, {"measurement": "TGI", "setting": "OVCAR-3; total growth inhibition", "value": 5.06, "unit": "µM"}, {"measurement": "IC50", "setting": "OVCAR-4", "value": 2.63, "unit": "µM"}, {"measurement": "IC50", "setting": "OVCAR-8; Homo sapiens", "value": 3.85, "unit": "µM"}, {"measurement": "TGI", "setting": "OVCAR-8; [1]", "value": 10.50}, {"measurement": "IC50", "setting": "CAKI-1; Homo sapiens", "value": 3.01, "unit": "µM"}, {"measurement": "TGI", "setting": "CAKI-1; total growth inhibition", "value": 5.60}, {"measurement": "IC50", "setting": "TK-10; Homo sapiens", "value": 3.86, "unit": "µM"}, {"measurement": "TGI", "setting": "TK-10; total growth inhibition", "value": 6.63, "unit": "µM"}, {"measurement": "TGI", "setting": "HS 578T; Breast Cancer, HS 578T, total growth inhibition", "value": 6.88, "unit": "µM"}, {"measurement": "IC50", "setting": "HS 578T; Homo sapiens, Hs-578T", "value": 2.39, "unit": "µM"}, {"measurement": "TGI", "setting": "T-47D; total growth inhibition", "value": "> 18", "unit": "µM"}, {"measurement": "IC50", "setting": "T-47D; Homo sapiens, T47D", "value": 3.72, "unit": "µM"}, {"measurement": "TGI", "setting": "MDA-MB-468; total growth inhibition", "value": 5.03, "unit": "µM"}, {"measurement": "IC50", "setting": "MDA-MB-468; Homo sapiens", "value": 2.48, "unit": "µM"}]}
